Experimental data reported in patent publication US20240424022A1, “IN VIVO AND EX VIVO METHODS OF MODULATING T CELL EXHAUSTION/DE-EXHAUSTION” (Flagship Pioneering Innovations VI, LLC, priority 2021, published 2024).

Experiments:
T cells = assay: scRNAseq analysis of MC38 tumor single cell suspensions; assay type: in vivo; conditions: MC38 syngeneic mouse, versus PBS
Description: (§1) The day after the final dose, mice were euthanized, blood was collected by cardiac puncture and the tumors were removed. For all mice, a section of tumor was flash frozen in liquid nitrogen and stored at −80 degrees C. for future analysis; the remainder of the tumor was placed in cold RPMI (with glucose) and processed to generate a single cell suspension for flow cytometry. For a pre-selected subgroup of mice, a sample of the single cell suspension was collected for scRNAseq (3 samples from 5 treatment groups provided 15 samples for 2 runs on a 10× Chromium box). Each tumor was minced with a clean razor blade to the consistency of chopped garlic. The tumor was placed in a digestive enzyme mix (mouse tumor dissociation kit, Miltenyi) and incubated on a dissociator at 37 degrees C. for 45 min (OctoMax). Following dissociation, the slurry was filtered through a 70 μm nylon filter, centrifuged, and the pellet resuspended in Ammonium-Chloride-Potassium (ACK) lysing buffer for 3 minutes to lyse red blood cells. The ACK buffer was neutralized with 10-fold excess PBS and then the cell suspension was centrifuged to concentrate the cells. Cell suspensions from all tumors were stored on ice until analyzed by flow cytometry.
As detailed above, 15 samples of tumor single cell suspension were obtained for single cell RNA sequencing (Table 8). […]

[1] = tested on: colon adenocarcinoma cell line, MC38; assay: Efficacy study in MC38 syngeneic mice, tumor growth inhibition; assay type: in vivo, mouse; conditions: doses per Table 5 (Anti-PD-1 200 ug IP BIWx3, by day 9; Perturbagen 1 10 mg/kg IP QDx10), Table 3 numbering
[2] = tested on: CD8+ T cells derived from tumors; assay: Flow cytometry of tumor infiltrating T lymphocytes, MC38 syngeneic mouse model; assay type: in vivo; conditions: MC38 mice, day after final dose, doses per Table 5, Table 3 numbering
Description: as §1
For flow cytometry, samples of each cell suspension were incubated at room temperature for one hour with an antibody panel optimized for detection of effector and exhausted T cells (Tables 6 and 7). Prior to intracellular staining, samples were permeabilized and fixed using the eBioscience™ Foxp3 Transcription Factor Staining Buffer Set (ThermoFisher) according to the manufacturer's recommendations. Samples were then incubated for one hour with the intracellular staining mix, then centrifuged and resuspended for flow cytometric analysis. Following compensation measurements using commercial beads, fluorescence minus one (fmo) measurements were performed followed by measurements of all the samples. For each sample, at least 100,000 events were recorded. All analysis for flow cytometry data was performed using FlowJo™ (BD).

In the case of pembrolizumab, the “Density of T cells in scRNAseq manifold” value (T cells) is reported as “enhanced”, the “Tumor growth inhibition (TGI)” value [1] is reported as “significant tumor growth inhibition” and the “Expression of PD-1 in CD8+ T cells derived from tumors” value [2] is reported as “reduced”. The “Expression of TIGIT in CD8+ T cells derived from tumors” value [2] was “reduced” and the “Number of CD8+ T cells in the tumor” value [2] was “increased”.
